Consider 1 compound from patent US9376421B2, “Compounds and methods for myotonic dystrophy therapy” (The Board of Trustees of the University of Illinois, priority 2014, dated 2016).

One data set deals with d(CTG.CAG)12. In words: Isothermal titration calorimetry, d(CTG.CAG)12. Format: binding. Particulars: 25° C., 20 mM MOPS pH 7.0, 300 mM NaCl. The method, then:
To directly assess the DNA-targeting ability of 9, ITC experiments were performed with oligonucleotide analogs of the various trinucleotide repeat sequences (Table 1). […] This supports the idea that 9 inhibits the transcription of CTG^exp by stabilizing its hairpin structure. […] The in vitro transcription experiment using (CTG[…]CAG)74 (SEQ ID NOS 3-4, respectively) and compounds 2, 5-7, and 9 was repeated but with (CUG)16 (SEQ ID NO: 1) added as a competitor.
Isothermal titration calorimetry (ITC) measurements were performed at 25° C. on a MicroCal VP-ITC (MicroCal, Inc., Northampton, Mass.). A standard experiment consisted of titrating 10 μL of a 500 μM ligand solution from a […] syringe (rotating at 300 rpm) into a sample cell containing 1.42 mL of a 10 μM DNA or RNA solution. An ITC experiment consisted of 28 total injections (first injection was 5 μL, subsequent injections were 10 μL), with a 10 s duration per injection and delay of 380 s between injections. The initial delay prior to the first injection was 300 s. To derive the heat associated with each injection, the area under each isotherm (microcalories per second versus seconds) was determined by integration by the graphing program Origin 7.0 (MicroCal, Inc. Northampton, Mass.). […]

Another data set concerns cTNT32. In words: Ligand-RNA binding affinity, cTNT32.
Another data set deals with HIV FS. The data set can be described thus: Ligand-RNA binding affinity, HIV FS. More on the design: species or system HIV-1.
The test system of a further data set is (CTG.CAG)74. The data set can be described thus: In vitro transcription of (CTG.CAG)74. Format: biochemical. The method, then: FIG. 8A-B. In vitro transcription of (CTG.CAG)74 (SEQ ID NOS 3-4, respectively). Ligands at different concentrations were incubated with 15 ng linearized plasmids in T7 RNA polymerse mixture at 37° C. After 2 h, the reaction mixture was on a 8% denaturing gel. (a) Transcription gels of ligands at different concentrations (“(CUG)74” is disclosed as SEQ ID NO: 22). (b) Plot of the percentage of transcription inhibition versus ligand concentrations. The error bars represent standard errors of mean of three independent experiments. Untreated at 100 μM is at 0%; ligand 2 at 100 μM is at ˜10%; ligand 7 at 100 μM is at ˜35%; ligand 6 at 100 μM is at ˜80%; ligand 9 at 100 μM is at ˜96%; and ligand 5 at 100 μM is at ˜99%.
(SEQ ID NOS 3-4, respectively) transcription by 5, 6, and 9 in vitro. […] Nonetheless, the additional ammonium groups in these agents might potentially increase their affinity for both CTG DNA and CUG RNA so we returned to examine the potential for inhibition of CTG^exp transcription. The in vitro (CTG.CAG)74 (SEQ ID NOS 3-4, respectively) transcription assays utilized a T7 promoter located in the upstream region of the repeats.
(SEQ ID NOS 3-4, respectively). T7 RNA polymerase-mediated transcription reactions were incubated at 37° C. for 2 h. A 10 μL mixture contained 15 ng of linearized plasmid (CTG)74 (SEQ ID NO: 3) or control plasmid templates, 0.5 mM each rATP, rCTP, rGTP, and rUTP and 0.5 U T7 polymerase (Biolab) in 1×T7 transcription buffer (80 mM Tris pH 8.3, 10 mM MgCl2, 2 mM spermine, 0.1% Triton-X, 10 mM NaCl). Ligand was added with the final concentrations of 0, 1, 10, 50, and 100 μM prior to incubation. Reactions were quenched by adding 8 μL of 8 M Urea and 2 μL of denaturing dye (95% formamide, 5 mM EDTA, 0.025% each xylene cyanol and bromophenol blue) and heating to 95° C. for 5 min. Of this solution, 15 μL was run on a 8% denaturing polyacrylamide gel in 0.5×TBE and stained with EtBr. Bands were quantified using the ImageJ (NIH). The intensity of (CUG)74 (SEQ ID NO: 22) band (ca. 260 nt) was normalized to that from the untreated transcription reaction. […]

Another data set addresses MBNL1-CUGexp complex. Particulars: previously reported; cited from earlier work.
Data set [1] concerns MBNL1-CUGexp nuclear foci in HeLa cells transfected with GFP-DT960. Particulars: DM1 model cell cultures; cited from earlier work.
The next data set relates to cTNT minigene splicing. Particulars: DM1 model cell cultures; cited from earlier work.
The test system of a further data set is cells. Particulars: cited from earlier work.
For data set [2] the following is noted: cited from earlier work.

Regarding `N=C(NCCCCNc1nc(N)nc(N)n1)c1ccc(C(=N)NCCCCNc2nc(N)nc(N)n2)cc1` [Ligand 2], the “binding affinity toward d(CTG.CAG)12 by ITC” value in the data set with d(CTG.CAG)12 is “lack of binding affinity”. In the data set with cTNT32, the “affinity toward cTNT32” value is recorded as “no affinity”. In addition, the “affinity toward HIV FS” value in the data set with HIV FS was “no affinity”. The “transcription inhibition of (CTG.CAG)74 at 100 μM” value with (CTG.CAG)74 (100 μM, 2 h, 37° C., T7 RNA polymerase) was ~10%. The “inhibition of (CTG.CAG)74 transcription (qualitative)” value with (CTG.CAG)74 (1-100 μM) is “negligible effects”. For the same compound, the “KI, inhibition of MBNL binding” value at MBNL1-CUGexp complex was “low micromolar”. Moreover, in data set [1], the “dissolution of MBNL1-CUGexp nuclear foci (earlier work)” value is reported as “dissolved the MBNL1-CUG^exp nuclear foci”. In addition, the “rescue of splicing defect of cTNT minigene (earlier work)” value with cTNT minigene splicing is “partially rescued”. In the data set with cells, the “cell permeability / cell uptake” value is “better cell uptake”. Besides, the “water solubility in comparison to 1” value in data set [2] is “higher water solubility”.
